Reference: patent US20030158188A1, “Fused azabicyclic compounds that inhibit vanilloid receptor subtype 1 (VR1) receptor” (priority 2002, published 2003)
Where a name gives a salt, the structure may show the parent alone.

Row | melting point | SMILES
1 | 126 °C | O=C(NCc1ccc(Br)cc1)Nc1cccc2[nH]ncc12 (as salt: hydrochloride) [Example 89, N-(4-bromobenzyl)-N′-1H-indazol-4-ylurea]
2 | 198 °C | O=C(NCc1ccc(Br)cc1)Nc1cccc2[nH]ccc12 [Example 78, N-(4-bromobenzyl)-N′-1H-indol-4-ylurea]
3 | 178 °C | O=C(NCc1ccc(C(F)(F)F)cc1)Nc1cccc2[nH]ccc12 [Example 80, N-1H-indol-4-yl-N′-[4-(trifluoromethyl)benzyl]urea]
4 | 190 °C | Cc1[nH]c2cccc(NC(=O)NCc3ccc(Br)cc3)c2c1C [Example 88, N-(4-bromobenzyl)-N′-(2,3-dimethyl-1H-indol-4-yl)urea]

More lines, now with the values behind:

Row | SMILES | melting point
5 | O=C(NCc1ccc(Cl)c(Cl)c1)Nc1cccc2[nH]ccc12 [Example 79, N-(3,4-dichlorobenzyl)-N′-1H-indol-4-ylurea] | 201 °C
6 | O=C(NCc1ccc(OC(F)(F)F)cc1)Nc1cccc2[nH]ccc12 [Example 81, N-1H-indol-4-yl-N′-[4-(trifluoromethoxy)benzyl]urea] | 177 °C
7 | O=C(NCc1ccc(C(F)(F)F)c(F)c1)Nc1cccc2[nH]ccc12 [Example 82, N-[3-fluoro-4-(trifluoromethyl)benzyl]-N′-1H-indol-4-ylurea] | 198 °C
8 | O=C(NCc1ccc(Cl)c(C(F)(F)F)c1)Nc1cccc2[nH]ccc12 [Example 83, 1-(4-Chloro-3-trifluoromethyl-benzyl)-3-(1H-indol-4-yl)-urea] | 197 °C
9 | O=C(NCCc1ccc(Cl)cc1Cl)Nc1cccc2[nH]ccc12 [Example 85, N-[2-(2,4-dichlorophenyl)ethyl]-N′-1H-indol-4-ylurea] | 170 °C
